Assay results published in ChEMBL document CHEMBL3352383, “Trends and exceptions of physical properties on antibacterial activity for Gram-positive and Gram-negative pathogens” (J Med Chem, 2014).
≈ marks a conversion by molar mass, not a printed value.

Tests used:
[1] = Lipophilicity, log D of the compound; details: octanol/water
Pseudomonas aeruginosa [2] = test: Antibacterial activity against wild-type Pseudomonas aeruginosa; type: functional; details: for MIC: Pseudomonas aeruginosa
Escherichia coli [3] = test: Antibacterial activity against wild-type Escherichia coli; type: functional; details: for MIC: Escherichia coli
Pseudomonas aeruginosa [4] = test: Antibacterial activity against MeXABCDXY-deficient Pseudomonas aeruginosa; type: functional; details: for MIC: Pseudomonas aeruginosa
Escherichia coli [5] = test: Antibacterial activity against tolC-deficient Escherichia coli; type: functional; details: for MIC: Escherichia coli
Pseudomonas aeruginosa [6] = test: Ratio of MIC for wild-type Pseudomonas aeruginosa to MIC for MeXABCDXY-deficient Pseudomonas aeruginosa; type: functional
[7] = Inhibition of Haemophilus influenzae TrmD
[8] = Inhibition of Escherichia coli TrmD
Haemophilus influenzae = test: Antibacterial activity against acrB-deficient Haemophilus influenzae; type: functional
[9] = Inhibition of Escherichia coli GlmU
[10] = Inhibition of Haemophilus influenzae GlmU
Escherichia coli [11] = test: Antibacterial activity against tolC-deficient Escherichia coli in presence of 2% HSA; type: functional; details: for MIC: Escherichia coli
Escherichia coli [12] = test: Ratio of MIC for wild-type Escherichia coli to MIC for tolC-deficient Escherichia coli; type: functional
[13] = Inhibition of Pseudomonas aeruginosa MurC
Staphylococcus aureus [14] = test: Ratio of MIC for wild-type Staphylococcus aureus in presence of 2% HSA to MIC for wild-type Staphylococcus aureus; type: functional
Staphylococcus aureus [15] = test: Antibacterial activity against wild-type Staphylococcus aureus; type: functional
Escherichia coli [16] = test: Ratio of MIC for […] tolC-deficient Escherichia coli in presence of 2% HSA to MIC for tolC-deficient Escherichia coli in presence of 2% HSA; type: functional
Staphylococcus aureus [17] = test: Antibacterial activity against wild-type Staphylococcus aureus in presence of 2% HSA; type: functional

## N=C(N)SCc1ccc(Cl)c(Cl)c1
[1]
  logD: 1.4
Pseudomonas aeruginosa [2]
  Activity: 4 µg/mL
Escherichia coli [3]
  Activity: >32 µg/mL
Pseudomonas aeruginosa [4]
  Activity: 1 µg/mL
Escherichia coli [5]
  Activity: >32 µg/mL

## N=C(N)SCc1ccc(Cl)cc1
Pseudomonas aeruginosa [6]
  Ratio: 2
Pseudomonas aeruginosa [2]
  MIC: 12.5 µM
Escherichia coli [3]
  MIC: > 50 µM
Pseudomonas aeruginosa [4]
  MIC: 6.25 µM

## Oc1ncnc2scc(-c3ccccc3)c12
[7]
  IC50: < 5000 nM
[8]
  IC50: 17000 nM
Haemophilus influenzae
  MIC: > 64 µg/mL
Escherichia coli [5]
  MIC: > 64 µg/mL

## COc1cc(OC)c(S(=O)(=O)N2c3ccccc3CC2C)cc1NC(C)=O (stereo not drawn)
[9]
  IC50: 2100 nM
Haemophilus influenzae
  MIC: > 64 µg/mL
[10]
  IC50: 7800 nM
Escherichia coli [5]
  MIC: > 64 µg/mL

## COc1cc(OC)c(S(=O)(=O)N2c3ccccc3Oc3ccccc32)cc1NC(=O)CCC(=O)O
[9]
  IC50: 7 nM
Haemophilus influenzae
  MIC: 32 µg/mL (≈ 64.2 µM)
[10]
  IC50: 23 nM
Escherichia coli [5]
  MIC: > 64 µg/mL

## O=C(NCc1ccc(CN2CC[C@H](O)C2)cc1)c1csc2nc[nH]c(=O)c12
[1]
  logD: 0.37
[7]
  IC50: 420 nM
[8]
  IC50: 290 nM
Haemophilus influenzae
  MIC: > 64 µg/mL
Escherichia coli [5]
  MIC: > 64 µg/mL

## Fc1ccc(COc2cccc(-c3n[nH]cc3-c3ccncc3)c2)cc1
[1]
  logD: 4.3
Escherichia coli [3]
  Activity: 8 µg/mL
Escherichia coli [11]
  Activity: 16 µg/mL
Escherichia coli [5]
  Activity: <0.063 µg/mL

## CC(C)(C)c1nc(-c2ccc3c(c2)OCCO3)c(-c2ccncc2)[nH]1
[1]
  logD: 3.22
Escherichia coli [3]
  Activity: 32 µg/mL
Escherichia coli [11]
  Activity: 4 µg/mL
Escherichia coli [5]
  Activity: 0.25 µg/mL

## CC(C)(O)[C@H](NC(=O)c1ccc(C#CC#CC2CC2)cc1)C(=O)NO
[1]
  logD: 2.3
Pseudomonas aeruginosa [2]
  Activity: 0.25 µg/mL
Escherichia coli [3]
  Activity: <0.063 µg/mL
Pseudomonas aeruginosa [4]
  Activity: <0.06 µg/mL
Escherichia coli [11]
  Activity: <0.063 µg/mL
Escherichia coli [5]
  Activity: <0.063 µg/mL

## NC[C@H]1OB(O)c2ccccc21
Pseudomonas aeruginosa [6]
  Ratio: 1
Pseudomonas aeruginosa [2]
  MIC: 6.25 µM
Escherichia coli [3]
  MIC: 12.5 µM
Pseudomonas aeruginosa [4]
  MIC: 6.25 µM
Escherichia coli [12]
  Ratio: 1
Escherichia coli [5]
  MIC: 12.5 µM

## CO[C@H]1CN(c2nc(-c3cnc(N4CCN[C@H](C)C4)cn3)c(C(=O)O)s2)CC[C@H]1NC(=O)c1[nH]c(C)c(Cl)c1Cl
Pseudomonas aeruginosa [6]
  Ratio: 8
Pseudomonas aeruginosa [2]
  MIC: 25 µM
Escherichia coli [3]
  MIC: > 25 µM
Pseudomonas aeruginosa [4]
  MIC: 3.13 µM
Escherichia coli [12]
  Ratio: 64
Escherichia coli [5]
  MIC: 0.39 µM

## OCC1CCCCN1c1nc(Nc2cc(C3CC3)[nH]n2)c2cn[nH]c2n1 (stereo not drawn)
[1]
  logD: 2.85
[13]
  IC50: 1000 nM
Pseudomonas aeruginosa [2]
  MIC: > 64 µg/mL
Escherichia coli [3]
  MIC: > 64 µg/mL
Pseudomonas aeruginosa [4]
  MIC: > 64 µg/mL
[8]
  IC50: 1200 nM
Escherichia coli [5]
  MIC: > 64 µg/mL

## Cn1nc(Nc2nc(N[C@H](CO)c3ccccc3)nc3[nH]ncc23)cc1C(C)(C)C
[1]
  logD: 3.33
[13]
  IC50: 1 nM
Pseudomonas aeruginosa [2]
  MIC: > 64 µg/mL
Escherichia coli [3]
  MIC: > 64 µg/mL
Pseudomonas aeruginosa [4]
  MIC: 1.5 µg/mL
[8]
  IC50: < 0.5 nM
Escherichia coli [5]
  MIC: 2 µg/mL

## CC[C@]1(C)C[C@@H](OC(=O)CSc2nnc(N)[nH]2)[C@]2(C)[C@H](C)CC[C@]3(CCC(=O)[C@H]32)[C@@H](C)[C@@H]1O [AZAMULIN]
Staphylococcus aureus [14]
  Ratio: 1
Escherichia coli [3]
  MIC: > 64 µg/mL
Escherichia coli [11]
  MIC: 8 µg/mL
Staphylococcus aureus [15]
  MIC: 2 µg/mL (≈ 4.18 µM)
Escherichia coli [5]
  MIC: 4 µg/mL
Escherichia coli [16]
  Ratio: 2
Staphylococcus aureus [17]
  MIC: 2 µg/mL

## Cc1cc(O)c(C(=O)N[C@@H](C(=O)N[C@@H]2C(=O)N3C(C(=O)O)=C(CSc4nnnn4C)CS[C@H]23)c2ccc(O)cc2)cn1 [CEFPIRAMIDE]
Escherichia coli [3]
  MIC: 16 µg/mL
Escherichia coli [11]
  MIC: 6.4 µg/mL
Staphylococcus aureus [15]
  MIC: 32 µg/mL (≈ 52.2 µM)
Escherichia coli [5]
  MIC: 0.5 µg/mL
Escherichia coli [16]
  Ratio: 128
Staphylococcus aureus [17]
  MIC: > 64 µg/mL

## CC(C)(O/N=C(\C(=O)N[C@@H]1C(=O)N2C(C(=O)[O-])=C(C[n+]3ccccc3)CS[C@H]12)c1csc(N)n1)C(=O)O [CEFTAZIDIME]
Escherichia coli [3]
  MIC: 0.8 µM
Escherichia coli [12]
  Ratio: 1.6
Escherichia coli [5]
  MIC: 0.5 µM

## C[C@@H](O)[C@H]1C(=O)N2C(C(=O)O)=C([C@H]3CCCO3)S[C@H]12 [FAROPENEM]
Pseudomonas aeruginosa [2]
  MIC: < 100 µM
Escherichia coli [3]
  MIC: 3.13 µM
Escherichia coli [5]
  MIC: 6.25 µM

## CC1COc2c(N3CCN(C)CC3)c(F)cc3c(=O)c(C(=O)O)cn1c23 (stereo not drawn) [OFLOXACIN]
Pseudomonas aeruginosa [6]
  Ratio: 62
Pseudomonas aeruginosa [2]
  MIC: 5.2 µM
Escherichia coli [3]
  MIC: 0.24 µM
Pseudomonas aeruginosa [4]
  MIC: < 0.08 µM
Escherichia coli [12]
  Ratio: 3
Escherichia coli [5]
  MIC: 0.08 µM

## CCCCCC1=C/C(=C/c2[nH]c(-c3ccc[nH]3)cc2OC)N=C1C [PRODIGIOSIN]
Staphylococcus aureus [14]
  Ratio: 8
Escherichia coli [3]
  MIC: 2 µg/mL
Escherichia coli [11]
  MIC: > 32 µg/mL
Staphylococcus aureus [15]
  MIC: 2 µg/mL (≈ 6.18 µM)
Escherichia coli [5]
  MIC: 1 µg/mL
Escherichia coli [16]
  Ratio: 2
Staphylococcus aureus [17]
  MIC: 16 µg/mL
